Measured values published in PubChem BioAssay AID322 (DTP/NCI, 2004).
Several values for one entry are separate records, joined by “and”; a condition that tells them apart may be missing. Equal entries are not always repeated. Toxic doses and inconclusive results are not listed.

System: CD2F1 mice, P388/ADR leukemia ip, median survival T/C
Experiment: NCI In Vivo Anticancer Drug Screen. Data for tumor model P388 Leukemia resistant to Adriamycin; NSC 123127, Developed at Scr 08 (intraperitoneal) in CD2F1 (CDF1) mice
Conditions: endpoint: median survival time, higher = longer survival
Experimental: The antitumor activity of compounds was measured in mice bearing transplantable tumors. Survival or tumor size were measured and the results are expressed as the measurement made in the treated group (T) divided by the measurement made in the vehicle treated control group (C). The tumor model used in this assay is P388 Leukemia resistant to Adriamycin; NSC 123127, Developed at Scr 08 (intraperitoneal) in CD2F1 (CDF1) mice

[1] = dose: 12.5 mg/kg/injection, schedule: Q01DX005 (ip), vehicle: saline with Tween-80
[2] = dose: 25.0 mg/kg/injection, schedule: Q01DX005 (ip), vehicle: saline with Tween-80

O=C(O)Cc1cccc2c(=O)cc(-c3ccccc3)oc12
T/C (dose: 24.12 mg/kg/injection, schedule: Q01DX005 (ip), vehicle: saline): 102 % of control | T/C (dose: 30.0 mg/kg/injection, schedule: Q01DX009 (ip), vehicle: saline): 114 % of control | T/C (dose: 30.0 mg/kg/injection, schedule: Q01DX009 (ip), vehicle: sodium bicarbonate): 124 % of control | T/C (dose: 40.2 mg/kg/injection, schedule: Q01DX005 (ip), vehicle: saline): 118 % of control | T/C (dose: 44.0 mg/kg/injection, schedule: Q01DX009 (ip), vehicle: sodium bicarbonate): 167 % of control | T/C (dose: 60.0 mg/kg/injection, schedule: Q04DX002 (ip), vehicle: sodium bicarbonate): 118 % of control | T/C (dose: 67.0 mg/kg/injection, schedule: Q01DX009 (ip), vehicle: saline): 187 % of control | T/C (dose: 67.0 mg/kg/injection, schedule: Q01DX009 (ip), vehicle: sodium bicarbonate): 187 % of control and 237 % of control and 245 % of control | T/C (dose: 90.0 mg/kg/injection, schedule: Q04DX002 (ip), vehicle: sodium bicarbonate): 118 % of control | T/C (dose: 100.0 mg/kg/injection, schedule: Q01DX009 (ip), vehicle: sodium bicarbonate): 207 % of control and 240 % of control and 291 % of control | T/C (dose: 111.67 mg/kg/injection, schedule: Q01DX005 (ip), vehicle: saline): 161 % of control | T/C (dose: 134.0 mg/kg/injection, schedule: Q04DX002 (ip), vehicle: sodium bicarbonate): 112 % of control | T/C (dose: 150.0 mg/kg/injection, schedule: Q01DX009 (ip), vehicle: saline): 104 % of control | T/C (dose: 150.0 mg/kg/injection, schedule: Q01DX009 (ip), vehicle: sodium bicarbonate): 233 % of control and 260 % of control and 124 % of control | T/C (dose: 175.0 mg/kg/injection, schedule: Q01DX009 (ip), vehicle: sodium bicarbonate): 103 % of control | T/C (dose: 186.12 mg/kg/injection, schedule: Q01DX005 (ip), vehicle: saline): 164 % of control

C=C1c2cccc(O)c2C(O)=C2C(=O)[C@]3(O)C(O)=C(C(N)=O)C(=O)[C@@H](N(C)C)[C@@H]3[C@@H](O)[C@H]12
T/C (dose: 21.6 mg/kg/injection, schedule: Q01DX005 (ip), vehicle: Klucel (hydroxypropylcellulose) (HPC)): 114 % of control | T/C (dose: 25.0 mg/kg/injection, schedule: Q01DX005 (ip), vehicle: Klucel (hydroxypropylcellulose) (HPC)): 109 % of control | T/C (dose: 36.0 mg/kg/injection, schedule: Q01DX005 (ip), vehicle: Klucel (hydroxypropylcellulose) (HPC)): 97 % of control and 100 % of control | T/C (dose: 50.0 mg/kg/injection, schedule: Q01DX005 (ip), vehicle: Klucel (hydroxypropylcellulose) (HPC)): 118 % of control | T/C (dose: 60.0 mg/kg/injection, schedule: Q01DX005 (ip), vehicle: Klucel (hydroxypropylcellulose) (HPC)): 226 % of control and 100 % of control | T/C (dose: 100.0 mg/kg/injection, schedule: Q01DX005 (ip), vehicle: Klucel (hydroxypropylcellulose) (HPC)): 99 % of control and 112 % of control | T/C (dose: 166.66 mg/kg/injection, schedule: Q01DX005 (ip), vehicle: Klucel (hydroxypropylcellulose) (HPC)): 117 % of control | T/C (dose: 200.0 mg/kg/injection, schedule: Q01DX005 (ip), vehicle: Klucel (hydroxypropylcellulose) (HPC)): 119 % of control

COc1ccc(C(C)c2cc3c(cc2OC)OCO3)cc1 (stereo not drawn)
T/C [1]: 105 % of control | T/C [2]: 109 % of control | T/C (dose: 50.0 mg/kg/injection, schedule: Q01DX005 (ip), vehicle: saline with Tween-80): 119 % of control

COc1cccc2c1C(=O)c1c(O)c3c(c(O)c1C2=O)C[C@@](O)(C(=O)CO)C[C@@H]3OC1CC(N)C(O)C(C)O1 (stereo partly drawn)
T/C (dose: 0.38 mg/kg/injection, schedule: Q01DX009 (ip), vehicle: saline): 118 % of control | T/C (dose: 0.43 mg/kg/injection, schedule: Q01DX009 (ip), vehicle: saline): 86 % of control | T/C (dose: 0.75 mg/kg/injection, schedule: Q01DX009 (ip), vehicle: saline): 109 % of control | T/C (dose: 0.97 mg/kg/injection, schedule: Q04DX002 (ip), vehicle: saline): 110 % of control | T/C (dose: 0.97 mg/kg/injection, schedule: Q04DX003 (ip), vehicle: saline): 98 % of control | T/C (dose: 0.97 mg/kg/injection, schedule: Q04DX003 (ip), vehicle: water): 100 % of control | T/C (dose: 1.2 mg/kg/injection, schedule: Q01DX009 (ip), vehicle: saline): 98 % of control | T/C (dose: 1.25 mg/kg/injection, schedule: Q01DX001 (ip), vehicle: saline): 118 % of control | T/C (dose: 1.5 mg/kg/injection, schedule: Q01DX009 (ip), vehicle: saline): 108 % of control | T/C (dose: 1.62 mg/kg/injection, schedule: Q04DX002 (ip), vehicle: saline): 111 % of control | T/C (dose: 1.62 mg/kg/injection, schedule: Q04DX003 (ip), vehicle: saline): 107 % of control | T/C (dose: 1.62 mg/kg/injection, schedule: Q04DX003 (ip), vehicle: water): 100 % of control | T/C (dose: 2.0 mg/kg/injection, schedule: Q01DX009 (ip), vehicle: saline): 86 % of control | T/C (dose: 2.16 mg/kg/injection, schedule: Q04DX003 (ip), vehicle: saline): 100 % of control | T/C (dose: 2.5 mg/kg/injection, schedule: Q01DX001 (ip), vehicle: water): 124 % of control | T/C (dose: 2.7 mg/kg/injection, schedule: Q04DX002 (ip), vehicle: saline): 117 % of control | T/C (dose: 2.7 mg/kg/injection, schedule: Q04DX003 (ip), vehicle: saline): 100 % of control | T/C (dose: 2.7 mg/kg/injection, schedule: Q04DX003 (ip), vehicle: water): 101 % of control | T/C (dose: 3.33 mg/kg/injection, schedule: Q01DX009 (ip), vehicle: saline): 90 % of control | T/C (dose: 3.6 mg/kg/injection, schedule: Q04DX003 (ip), vehicle: saline): 102 % of control | T/C (dose: 4.4 mg/kg/injection, schedule: Q01DX001 (ip), vehicle: saline): 120 % of control | T/C (dose: 4.5 mg/kg/injection, schedule: Q04DX002 (ip), vehicle: saline): 120 % of control | T/C (dose: 4.5 mg/kg/injection, schedule: Q04DX003 (ip), vehicle: saline): 102 % of control | T/C (dose: 4.5 mg/kg/injection, schedule: Q04DX003 (ip), vehicle: water): 94 % of control | T/C (dose: 4.5 mg/kg/injection, schedule: Q04DX003 (iv), vehicle: saline): 109 % of control | T/C (dose: 5.0 mg/kg/injection, schedule: Q01DX001 (ip), vehicle: water): 109 % of control | T/C (dose: 6.0 mg/kg/injection, schedule: Q04DX003 (ip), vehicle: saline): 106 % of control | T/C (dose: 6.2 mg/kg/injection, schedule: Q01DX001 (ip), vehicle: saline): 116 % of control | T/C (dose: 6.7 mg/kg/injection, schedule: Q01DX005 (ip), vehicle: saline): 152 % of control | T/C (dose: 6.7 mg/kg/injection, schedule: Q04DX003 (iv), vehicle: saline): 102 % of control | T/C (dose: 7.5 mg/kg/injection, schedule: Q04DX002 (ip), vehicle: saline): 121 % of control | T/C (dose: 7.5 mg/kg/injection, schedule: Q04DX003 (ip), vehicle: water): 92 % of control | T/C (dose: 10.0 mg/kg/injection, schedule: Q01DX001 (ip), vehicle: water): 107 % of control | T/C (dose: 10.0 mg/kg/injection, schedule: Q04DX003 (ip), vehicle: saline): 87 % of control | T/C (dose: 10.0 mg/kg/injection, schedule: Q04DX003 (iv), vehicle: saline): 90 % of control | T/C (dose: 12.5 mg/kg/injection, schedule: Q01DX001 (ip), vehicle: saline): 109 % of control and 119 % of control | T/C (dose: 15.0 mg/kg/injection, schedule: Q01DX005 (ip), vehicle: saline): 107 % of control | T/C (dose: 15.0 mg/kg/injection, schedule: Q04DX003 (iv), vehicle: saline): 88 % of control | T/C (dose: 16.0 mg/kg/injection, schedule: Q04DX003 (ip), vehicle: saline): 90 % of control | T/C (dose: 20.0 mg/kg/injection, schedule: Q01DX001 (ip), vehicle: water): 88 % of control

COc1cccc(Sc2ccc([N+](=O)[O-])c3no[n+]([O-])c23)c1
T/C (dose: 1.56 mg/kg/injection, schedule: Q01DX005 (ip), vehicle: saline with Tween-80): 98 % of control | T/C (dose: 3.12 mg/kg/injection, schedule: Q01DX005 (ip), vehicle: saline with Tween-80): 100 % of control | T/C (dose: 6.25 mg/kg/injection, schedule: Q01DX005 (ip), vehicle: saline with Tween-80): 107 % of control | T/C [1]: 110 % of control | T/C [2]: 101 % of control

O=C(O)CCCc1ccc(N(CCCl)CCCl)cc1
T/C (dose: 1.25 mg/kg/injection, schedule: Q01DX005 (ip), vehicle: saline with Tween-80): 120 % of control | T/C (dose: 10.0 mg/kg/injection, schedule: Q01DX005 (ip), vehicle: saline with Tween-80): 205 % of control

CN(Cc1cnc2nc(N)nc(N)c2n1)c1ccc(C(=O)N[C@@H](CCC(=O)O)C(=O)O)cc1
T/C (dose: 0.38 mg/kg/injection, schedule: Q01DX005 (ip), vehicle: sodium bicarbonate): 122 % of control | T/C (dose: 0.75 mg/kg/injection, schedule: Q01DX005 (ip), vehicle: sodium bicarbonate): 155 % of control | T/C (dose: 1.5 mg/kg/injection, schedule: Q01DX005 (ip), vehicle: sodium bicarbonate): 179 % of control | T/C (dose: 3.0 mg/kg/injection, schedule: Q01DX005 (ip), vehicle: sodium bicarbonate): 191 % of control and 195 % of control
